# From paper PMC6506387 (Structure (London, England : 1993), 2019)
# Experiments:
# [1] = biological target: T1, wt PKAcα (Homo sapiens, UniProt P17612); conditions: 1 mM ATP, 10 mM MgCl2, 20 mM MOPS pH 7.0, 150 mM NaCl, 0.5 °C/min
# [2] = biological target: T1, wt PKAcα; conditions: 20 mM MOPS pH 7.0, 150 mM NaCl; ATP 0-0.75 mM
structure (smiles),measurement,setting,value
Nc1ncnc2c1ncn2[C@@H]1O[C@H](COP(=O)(O)OP(=O)(O)OP(=O)(O)O)[C@@H](O)[C@H]1O [ATP],thermal shift,[1],stabilities of apo PKAcα or J-PKAcα subunits and its ATP and/or peptide binding forms
same,dissociation constant,[2],ATP dissociation constants were determined using the ThermoFluor assay.
